Measurements as given in patent US11311522B1 (Cavion, Inc., priority 2018, dated 2022).

Assay: PN002/Part I: safety and tolerability
Format: in vivo, human
Experimental: All adverse events were mild or moderate in intensity. No serious adverse events were reported. […] Treatment periods were separated by a minimum 1-week washout period after administration of the 2 mg dose in Period 1 and by a minimum 2-week washout after subsequent treatment periods. Clinical safety was monitored throughout the study by adverse events, clinical laboratory tests, vital signs, ECGs, and ECG telemetry. *The study was planned to include 8 subjects. A ninth subject was randomized to replace a subject who was discontinued after Period 1 (because of a prolonged QTc interval after administration of the 2 mg dose, which was considered by the investigator to be unrelated to the study drug). […] The most frequently reported adverse events were relaxation, fuzzy head, headache, lightheadedness, dizziness, and mood alteration, all of which were transient and generally mild or moderate in severity.

What does the source list for `CC(C)c1ccc(CC(=O)N[C@H](C)c2ccc(OCC(F)(F)F)cn2)cc1` [CX-8998]?
Lightheadedness (8 mg): 3 (50.0) n (%); Nasal congestion (8 mg): 1 (16.7) n (%); Nervous System Disorders (8 mg): 6 (100.0) n (%); Paraesthesia of fingers (8 mg): 0 n (%); Respiratory, Thoracic and Mediastinal Disorders (8 mg): 3 (50.0) n (%); Tiredness (8 mg): 2 (33.3) n (%); Vision blurred (8 mg): 1 (16.7) n (%); Visual disturbance (8 mg): 1 (16.7) n (%); At least 1 adverse event (12 mg): 5 (83.3) n (%); Breathing difficult (12 mg): 0 n (%); Dizziness (12 mg): 0 n (%); Dizziness upon standing (12 mg): 0 n (%); Dry mouth (12 mg): 1 (16.7) n (%); Dry throat (12 mg): 0 n (%); Eye Disorders (12 mg): 1 (16.7) n (%); Feeling drunk (12 mg): 1 (16.7) n (%); Feeling hot (12 mg): 0 n (%); Feeling of relaxation (12 mg): 2 (33.3) n (%); Feeling of warmth (12 mg): 0 n (%); Floating feeling (12 mg): 0 n (%); Fuzzy head (12 mg): 0 n (%); Headache (12 mg): 3 (50.0) n (%); Lightheadedness (12 mg): 0 n (%); Nasal congestion (12 mg): 0 n (%); Nervous System Disorders (12 mg): 4 (66.7) n (%); Paraesthesia of fingers (12 mg): 0 n (%); Respiratory, Thoracic and Mediastinal Disorders (12 mg): 1 (16.7) n (%); Tiredness (12 mg): 0 n (%); Vision blurred (12 mg): 1 (16.7) n (%); Visual disturbance (12 mg): 0 n (%); At least 1 adverse event (18 mg): 6 (100.0) n (%); Breathing difficult (18 mg): 2 (33.3) n (%); Dizziness (18 mg): 2 (33.3) n (%); Dizziness upon standing (18 mg): 1 (16.7) n (%); Dry mouth (18 mg): 0 n (%); Dry throat (18 mg): 1 (16.7) n (%); Eye Disorders (18 mg): 2 (33.3) n (%); Feeling drunk (18 mg): 1 (16.7) n (%); Feeling hot (18 mg): 2 (33.3) n (%); Feeling of relaxation (18 mg): 2 (33.3) n (%); Feeling of warmth (18 mg): 2 (33.3) n (%); Floating feeling (18 mg): 2 (33.3) n (%); Fuzzy head (18 mg): 2 (33.3) n (%); Gastrointestinal Disorders (18 mg): 3 (50.0) n (%); Headache (18 mg): 2 (33.3) n (%); Lightheadedness (18 mg): 1 (16.7) n (%); Nasal congestion (18 mg): 0 n (%); Nervous System Disorders (18 mg): 6 (100.0) n (%); Paraesthesia of fingers (18 mg): 2 (33.3) n (%); Respiratory, Thoracic and Mediastinal Disorders (18 mg): 2 (33.3) n (%); Tiredness (18 mg): 1 (16.7) n (%); Vision blurred (18 mg): 0 n (%); Visual disturbance (18 mg): 2 (33.3) n (%); At least 1 adverse event (any dose): 9 (100.0) n (%); Breathing difficult (any dose): 2 (22.2) n (%); Dizziness (any dose): 3 (33.3) n (%); Dizziness upon standing (any dose): 2 (22.2) n (%); Dry mouth (any dose): 4 (44.4) n (%); Dry throat (any dose): 2 (22.2) n (%); Eye Disorders (any dose): 4 (44.4) n (%); Feeling drunk (any dose): 2 (22.2) n (%); Feeling hot (any dose): 2 (22.2) n (%); Feeling of relaxation (any dose): 5 (55.6) n (%); Feeling of warmth (any dose): 2 (22.2) n (%); Floating feeling (any dose): 2 (22.2) n (%); Fuzzy head (any dose): 3 (33.3) n (%); Gastrointestinal Disorders (any dose): 6 (66.7) n (%); Headache (any dose): 7 (77.8) n (%); Lightheadedness (any dose): 4 (44.4) n (%); Nasal congestion (any dose): 2 (22.2) n (%); Nervous System Disorders (any dose): 8 (88.8) n (%); Paraesthesia of fingers (any dose): 2 (22.2) n (%); Respiratory, Thoracic and Mediastinal Disorders (any dose): 4 (44.4) n (%); Tiredness (any dose): 3 (33.3) n (%); Vision blurred (any dose): 3 (33.3) n (%); Visual disturbance (any dose): 3 (33.3) n (%); Tolerability (single doses up to 18 mg): generally well tolerated
